According to PubChem BioAssay AID179 (DTP/NCI, 2004):
Activity calls are given as the source filed them.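 How the source made its calls: active means compounds giving half or more protection of infected cells from virus-caused growth loss, again on retest; inactive means the rest.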

System: CEM cells HIV-1 protection, formazan growth assay
Assay: NCI AIDS Antiviral Assay
Conditions: for IC50: measured here: growth of uninfected CEM cells
Summary of the method: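 Protection of CEM cells against HIV-1 measured as cell growth via soluble formazan read-out, with five concentrations tested on both infected and uninfected cells; failure to protect may reflect toxicity.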

## COC1CC(COCc2ccccc2)CC(OC)O1 (stereo not drawn)
  EC50: > 200 µM
  IC50: 66.1 µM

## N#C/C(=C\c1ccc[nH]1)C(=O)c1ccccc1
  EC50: > 309 µM
  IC50: > 309 µM

## O=C(Nc1ccc(/C=C/c2ccc(NC(=O)c3ccccc3O)cc2S(=O)(=O)O)c(S(=O)(=O)O)c1)c1ccccc1O
  EC50: 115 µM
  IC50: > 200 µM

## Cc1cc(C)nc(NS(=O)(=O)c2ccc(Nc3c4ccc(Cl)cc4nc4c(C(=O)Nc5ccc(S(=O)(=O)N=C(N)N)cc5)cccc34)cc2)n1
  EC50: > 49 µM
  IC50: > 49 µM

## CCOC1NC(=O)Oc2ccccc21 (stereo not drawn)
  outcome: inactive

## CSc1nc(C(N)=O)c(NC(=O)c2ccccc2)s1
  EC50: > 200 µM
  IC50: 166 µM

## COc1ccc2c(=O)oc3c(OC)cc(CCN(C)C)c4c(=O)oc1c2c34
  outcome: inactive

## CCC1(c2ccc(OC)c(OC)c2)CCN2C(=O)C(O)CC21 (stereo not drawn)
  EC50: > 200 µM
  IC50: > 200 µM

## OC1CC2CCC(C1)S2 (stereo not drawn)
  EC50: > 200 µM
  IC50: > 200 µM

## CNC(=O)/C(C#N)=C(\N)N1CCCC1
  EC50: > 200 µM
  IC50: > 200 µM

## CN(C)c1ccc(/C=C(\NC(=O)c2ccccc2)c2nn(C)c(=O)o2)cc1
  EC50: > 100 µM
  IC50: > 100 µM

## Cc1cc2c(c(C(=O)NCCC(=O)N[C@@H](C)C(=O)OCc3ccccc3)c1)Oc1c(cc(C)cc1C(=O)NCCC(=O)N[C@@H](C)C(=O)OCc1ccccc1)S2
  EC50: > 200 µM
  IC50: > 200 µM

## CC(=O)C(C(=O)C(=O)Nc1cc(Cl)c(Cl)cc1Cl)c1csc(N)n1 (stereo not drawn)
  EC50: > 229 µM
  IC50: > 229 µM

## CC(=O)O[C@H]1CC[C@H]2[C@@H]3CCC4=C(C(=O)C=CC4(C)OC(C)=O)[C@H]3CC[C@]12C (stereo partly drawn)
  EC50: > 200 µM
  IC50: 13.8 µM

## NC(=O)C1C[C@@H](O)CN1C(=O)c1ccc2c(c1)OCO2 (stereo partly drawn)
  EC50: > 200 µM
  IC50: > 200 µM

## CC(=O)NNC(=S)/N=C/c1c(C)[nH]n(-c2ccccc2)c1=O
  outcome: inactive

## CC1(Cl)C(=O)NN=C1c1ccc([N+](=O)[O-])cc1 (stereo not drawn)
  EC50: > 200 µM
  IC50: 17.8 µM

## c1csc(-c2nnc(C34CC5CC(CC(C5)C3)C4)o2)c1
  EC50: > 200 µM
  IC50: 50.1 µM

## CCc1ccc(C2=C(O)C(=O)C(c3ccccc3)=C(O)C2=O)cc1
  EC50: > 87.1 µM
  IC50: 44.7 µM

## OC1(c2ccccc2)CCCCCCCCC(O)(c2ccccc2)CCCCCCCC1 (stereo not drawn)
  EC50: > 200 µM
  IC50: > 200 µM

## S=C1N(c2ccc(Cl)cc2)C2=C(N=Nc3ccccc3)C(=Nc3ccccc3S2)N1c1ccccn1
  EC50: > 50.1 µM
  IC50: 10 µM

## CC(=O)NC1C(OCc2ccccc2)OC(COC(=O)CCCCCCCCCCNC(=O)c2cccc3c(=O)c4ccccc4[nH]c23)C(O)C1OC(C)C(=O)NC(C)C(=O)NC(CCC(N)=O)C(N)=O (stereo not drawn)
  EC50: > 7.41 µM
  IC50: > 7.41 µM

## COc1ccc2c(c1)OC(=O)CC2c1ccc(OC)c(OC)c1 (stereo not drawn)
  EC50: > 200 µM
  IC50: > 200 µM

## CCCCCCCCCCCCCCCCCCOC(COP(=O)(O)OCC1CCC(n2ccc(NC(=O)CCCCCCCCCCCCCCC)nc2=O)O1)COP(=O)(O)OCC1OC(n2cc(C)c(=O)[nH]c2=O)CC1N=[N+]=[N-] (stereo not drawn)
  EC50: 0.871 µM
  IC50: 50.1 µM

## O=C1NC(N2CCCCC2)=N/C1=C\c1ccccc1
  EC50: > 200 µM
  IC50: > 200 µM

## CC[C@H]1CN2CCc3cc(OC)c(OC)cc3[C@@H]2C[C@@H]1C[C@H]1NCCc2c1[nH]c1ccc(O)cc21
  outcome: inactive

## O=C1C=C(C23CC4CC(CC(C4)C2)C3)Nc2ccccc2N1
  EC50: > 200 µM

## Cc1ccc(/C=C2/N=C(N/N=C\c3ccccc3)NC2=O)cc1
  EC50: > 200 µM
  IC50: 129 µM

## NC(=O)CNC(=O)c1ccc(NC(=O)c2ccccc2SC(=O)CCCC[n+]2ccccc2)cc1
  EC50: 15.8 µM
  IC50: 50.1 µM

## CC(=O)OC12c3ccccc3-c3ccccc3C1C(C(=O)O)C2(Cl)C(=O)O (stereo not drawn)
  EC50: > 646 µM
  IC50: 355 µM

## COC(=O)/C(=C\c1ccco1)P(=O)(OC)OC
  EC50: > 200 µM
  IC50: 191 µM

## COC(=O)C(/C(=N/NC(N)=O)C(=O)Nc1ccc(C)cc1)c1nc2ccc([N+](=O)[O-])cc2[nH]c1=O (stereo not drawn)
  EC50: > 141 µM
  IC50: > 141 µM

## O=C(c1ccccc1)N1CN(C(=O)c2ccccc2)CN(C(=O)c2ccccc2)C1
  EC50: > 200 µM
  IC50: 30.2 µM

## Cc1ccc(C)n1N1CCOCC1
  EC50: > 200 µM
  IC50: 115 µM

## CC1CCC2C(C)C(=O)OC3OC4(C)CCC1C32OO4 (stereo not drawn)
  EC50: > 457 µM
  IC50: 288 µM

## CN(CCO)CCC1COc2ccccc2O1 (stereo not drawn)
  outcome: inactive

## CCCCOC(=O)C(NC(C(=O)OCCCC)c1cc(C(C)(C)C)c(O)c(C(C)(C)C)c1)c1cc(C(C)(C)C)c(O)c(C(C)(C)C)c1 (stereo not drawn)
  EC50: > 200 µM
  IC50: > 200 µM

## Cc1ccc(C2(O)CC(c3ccc([N+](=O)[O-])o3)=NN2C(=O)COc2ccc(Cl)cc2)cc1 (stereo not drawn)
  EC50: > 11.5 µM
  IC50: > 11.5 µM

## C/C(CC(=O)Nc1ccc(C)c(C)c1)=N\NC(N)=S
  EC50: > 891 µM
  IC50: 117 µM

## COC1=CC(=O)c2c(O)c3c(c(O)c2C1=O)C=C(C)OC3O (stereo not drawn)
  outcome: inactive

## CCCCCCNC(=O)/C(=C/C=C/c1ccccc1)NC(=O)c1ccccc1
  EC50: > 200 µM
  IC50: 49 µM

## O=S1CSCS1 (stereo not drawn)
  EC50: > 200 µM
  IC50: > 200 µM

## COC(=O)/C(=N\NC(N)=O)C(C(=O)C=C(C)C)C(=O)C(=O)Nc1ccc(Cl)c(Cl)c1 (stereo not drawn)
  EC50: > 550 µM
  IC50: 457 µM

## O=CC[C@H]1C=Cc2ccccc2[C@@]12C=CC(=O)CC2
  EC50: > 28.8 µM
  IC50: 21.9 µM

## Cc1c2c(n(CCc3ccccc3)c1C)N(C)N=C(C#N)S2(=O)=O
  EC50: > 200 µM
  IC50: > 200 µM

## CCCCCCNCCCNc1c2cc(OC)ccc2nc2cccc([N+](=O)[O-])c12
  EC50: > 2 µM
  IC50: 0.347 µM

## CCOP(=S)(OCC)OC(=O)C(C)SSC (stereo not drawn) (tested in a mixture with another compound)
  EC50: > 200 µM
  IC50: 95.5 µM

## N#Cc1c(-c2ccc(Cl)cc2)c(-c2ccc(Cl)cc2)nn(CCOC(=O)CCC(=O)O)c1=O
  EC50: > 513 µM
  IC50: 0.468 µM

## Cc1ccc(S(=O)(=O)N(C)C)cc1NC1=NCCO1
  EC50: > 200 µM
  IC50: > 200 µM

## O=[N+]([O-])c1cccc2c(Nc3ccc(S(=O)(=O)Nc4nccs4)cc3)c3ccccc3nc12
  EC50: > 200 µM
  IC50: 21.9 µM

## CCC1Oc2c(CC=C(C)C)c(O)c(C(O)C(C)CC)c3oc(=O)cc1c23 (stereo not drawn)
  EC50: > 200 µM
  IC50: 26.3 µM

## Cc1cccc(CP(Cc2cccc(C)c2)CC2(Cp3c4ccccc4c4ccccc43)COC2)c1
  EC50: > 2 µM
  IC50: 0.257 µM

## Nc1cc2ncnn2c(SCC(=O)N/N=C/C(Br)=C\c2ccccc2)n1
  EC50: > 200 µM
  IC50: 7.94 µM

## O=C(Nc1ccccc1)N1CC(CN2CCN(c3ccccc3)CC2)OC1=O (stereo not drawn)
  EC50: > 200 µM
  IC50: > 200 µM

## CCOP(=O)(OCC)C1C(CO)OC(n2ccc(=O)[nH]c2=O)C1O (stereo not drawn)
  EC50: > 200 µM
  IC50: 74.1 µM

## C=CC1(C)CCC2C(C)(C)C(Br)CC[C@]2(C)O1 (stereo partly drawn)
  outcome: inactive

## CC(C)CCCC(C)[C@H]1CC[C@H]2[C@@H]3CC[C@H]4C[C@@H](CCC=C(c5cc(Cl)c(OCc6cccc(B(O)O)c6)c(C(=O)O)c5)c5cc(Cl)c(OCc6cccc(B(O)O)c6)c(C(=O)O)c5)CC[C@]4(C)[C@H]3CC[C@]12C (stereo partly drawn)
  EC50: 138 µM
  IC50: > 200 µM

## Cc1cccc(C(C)(C)C)c1NC(=O)/C(Cc1nc2ccc([N+](=O)[O-])cc2[nH]c1=O)=N/NC(=O)C[N+](C)(C)C
  EC50: > 437 µM
  IC50: 60.3 µM

## CSc1ccc(C2OC(=O)c3c2ccc2ccccc32)c(C)c1 (stereo not drawn)
  EC50: > 16.2 µM
  IC50: > 16.2 µM

## COc1cccc(NCC(=O)Nn2c(-c3ccccc3)nc3ccccc3c2=O)c1
  EC50: > 200 µM
  IC50: 112 µM

## CC1=NC=C(O)c2ccccc2O1
  EC50: > 40.7 µM
  IC50: > 40.7 µM

## OC(c1cc2ccccc2[nH]1)C1(c2cccnc2)SCCCS1 (stereo not drawn)
  EC50: > 200 µM
  IC50: 57.5 µM

## Nc1nc[n+](Cc2ccccc2CCO)c2nc[nH]c12
  EC50: > 37.2 µM
  IC50: > 37.2 µM

## O=c1[nH]c2ccc(C(F)(F)F)cc2nc1-c1ccccc1
  EC50: > 200 µM
  IC50: > 200 µM

## COc1ccccc1NC(=S)Nc1cccc(C)n1
  EC50: 16.6 µM
  IC50: 61.7 µM

## [N-]=[N+]=NC1(c2ccccc2)C(=O)c2cccc3c2N(CCC3)C1=O (stereo not drawn)
  EC50: > 200 µM
  IC50: 141 µM

## COC[n+]1cc2cc(OC)c(OC)cc2c2ccc3cc(OC)c(OC)cc3c21
  EC50: > 31.6 µM
  IC50: > 31.6 µM

## O=[N+]([O-])c1ccccc1-c1nc2nc(N3CCOCC3)nc(N3CCOCC3)n2n1
  EC50: > 77.6 µM
  IC50: 52.5 µM

## Cc1cc(C)nc(NS(=O)(=O)c2ccc(NN=c3c4ccccc4n(C)c4ccccc34)cc2)n1
  EC50: > 200 µM
  IC50: 11.2 µM

## CC(=O)Oc1ccc2c(-c3ccccc3)c(Oc3ccc(Cl)cc3)c(=O)oc2c1
  EC50: > 200 µM
  IC50: 15.8 µM

## O=C1NC2NC(=O)NC2N1 (stereo not drawn)
  EC50: > 479 µM
  IC50: > 479 µM

## O=C(CO)CC(=O)C(=O)Nc1ccccc1
  EC50: > 151 µM
  IC50: > 151 µM

## COC(=O)c1ccccc1/C=C1\Cc2c(C)c3c(c(C)c2C1=O)CCC3
  outcome: inactive

## NC(=S)NNC(=O)CCC(=O)Nc1ccc(Cl)cc1Cl
  EC50: > 107 µM
  IC50: > 107 µM

## O=S1[C@H](c2ccccc2)c2c(-c3ccccc3)sc(-c3ccccc3)c2[C@@H]1c1ccccc1 (stereo partly drawn)
  outcome: inactive

## Nc1c(C(=O)O)[nH]c(=O)[nH]c1=S
  EC50: > 200 µM
  IC50: 95.5 µM

## Cc1ccc(SC2CC3CC2C2COCC32)cc1 (stereo not drawn)
  EC50: > 85.1 µM
  IC50: 47.9 µM

## Cc1csc2c(P(=O)(OC(C)C)OC(C)C)c(-c3ccccc3)cn12
  EC50: > 200 µM
  IC50: 33.1 µM

## C/C(=C\CNc1ncnc2nc(Cl)[nH]c12)CO
  EC50: > 200 µM
  IC50: > 200 µM

## O=[N+]([O-])c1ccc(SSc2ccc([N+](=O)[O-])cc2Cl)c(Cl)c1
  EC50: > 200 µM
  IC50: 10 µM

## CC1[C@@H](OCc2ccccc2)COC(=O)N1Cc1ccccc1 (stereo partly drawn)
  EC50: > 200 µM
  IC50: 89.1 µM

## CCOC(=O)CCC(NC(=O)c1ccc(NC(OC)c2nc3cc(C(F)(F)F)ccc3nc2-c2ccccc2)cc1)C(=O)OCC (stereo not drawn)
  EC50: > 8.13 µM
  IC50: > 8.13 µM

## Cc1ccc2c(c1)[nH]c(=S)n2/C=C(/c1ccc(Cl)cc1)S(=O)(=O)Cc1ccc(Cl)cc1
  EC50: > 200 µM
  IC50: > 200 µM

## Oc1ccc(CCC2CCNc3ccccc32)cc1 (stereo not drawn)
  EC50: > 5.01 µM
  IC50: > 5.01 µM
